One test relates to MN9D dopaminergic cells. Briefly: Caspase-3 activity assay, protection against 6-OHDA toxicity. It is filed as cell-based. To be noted: 1 ng/mL for 1 hour before 100 μM 6-OHDA for 15 min; at 3 h. The procedure:
MN9D Cell Cultures: The MN9D cell line has been described by Choi (1991) Brain Res. 552:67-76 and was a gift from Michael Zigmond. Cells were cultured in DMEM supplemented with 10% Fetal Bovine Serum (FBS, Hyclone), 50 U/mL penicillin and streptomycin. For experiments, the cells were plated on 24-well poly-D-lysine in DMEM with 1% (v/v) penicillin-streptomycin. The cells were grown at 37° C. in 5% CO2.
Caspase-3 Activity Assay in MN9D Cells: MN9D cells were plated to 100,000 cells/well. Cell cultures were exposed to DNSP-11 (1 ng/mL) or buffer for 1 hour prior to 15 min 100 μM 6-OHDA exposure. Caspase-3 activity was monitored after 3 hours by fluorescence (excitation/emission 496/520 nm) using the Enz Chek Caspase-3 kit. Protein levels of lysed cells were measured by BCA assay (BioRad) and normalized for every experiment. Data expressed as % control and repeated a minimum of 3 times.
To evaluate DNSP-11's neuroprotective properties, DNSP-11 was compared to GDNF in its protection against 6-OHDA-induced toxicity in the dopaminergic cell line, MN9D. MN9D dopaminergic cells were incubated for 1 hour with either citrate buffer (control), 1 ng/mL of DNSP-11 or GDNF prior to 100 μM 6-OHDA exposure for 15 min. Data are +SD, one-way ANOVA with Tukey's post hoc analysis, *p<0.05, **p<0.01, ***p<0.001 vs. control; #p<0.05, ##p<0.01, ###p<0.001 vs. 6-OHDA.

Test [1] deals with T1, glyceraldehyde-3-phosphate dehydrogenase (GAPDH) (Rattus norvegicus, UniProt P04797).
T1 construct: homogenate from isolated substantia nigra of normal young Fischer 344 rats; from tissue; host or cells: substantia nigra of Fischer 344 rats (cytosolic and membrane fractions)
T1 sequence (P04797 whole entry): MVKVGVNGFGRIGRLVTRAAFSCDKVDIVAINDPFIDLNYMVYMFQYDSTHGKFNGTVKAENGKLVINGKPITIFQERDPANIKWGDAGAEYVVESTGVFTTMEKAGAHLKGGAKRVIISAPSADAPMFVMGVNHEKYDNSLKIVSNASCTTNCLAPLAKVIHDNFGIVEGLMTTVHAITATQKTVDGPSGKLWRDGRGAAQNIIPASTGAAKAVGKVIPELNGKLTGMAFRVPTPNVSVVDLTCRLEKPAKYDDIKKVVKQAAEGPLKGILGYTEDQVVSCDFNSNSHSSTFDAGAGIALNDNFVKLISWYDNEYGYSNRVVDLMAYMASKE
Nature of the test: DNSP-11 pull-down with substantia nigra homogenate, 2D-PAGE and MALDI-TOF MS. In kind it is binding. As to the method:
DNSP-11 Pull-down analysis: The F344 substantia nigra was homogenized in homogenization buffer (modified from York et al. (2005) FASED J. 19: 1202-4 with 20 mM HEPES, pH 7.4) and cytosolic fraction (supernatant) collected after 30 minutes at 100,000 g. 50 μg of bDNSP-11 was incubated with fraction for 15 minutes on ice. Sample was added to streptavidin magnetic beads (New England Biolabs), pelleted, and washed four times in homogenization buffer. Bound proteins were eluted by Solubilization/Rehydration Solution (7 M Urea, 2 M Thiourea, 50 mM DTT, 4% CHAPS, 1% NP-40, 0.2% Carrier ampholytes, 0.0002% Bromophenol blue), and analyzed by 2D-PAGE and MALDI-TOF MS.
In order to identify the interactions of DNSP-11 with protein partners and to gain insight into the cellular mechanisms involved with the actions of DNSP-11, a pull-down assay was performed with homogenate from isolated substantia nigra of normal young Fischer 344 rats. Cytosolic and membrane fractions were collected and incubated with biotinylated DNSP-11 for 30 minutes. Bound proteins were pulled down by strepavidin magnetic beads, extensively washed to remove non-specific binders, eluted with solubilization/rehydration buffer and separated by 2D-PAGE.
To identify these binding partners, protein bands were excised from the gels, trypsin digested, and analyzed by MALDI-TOF mass spectrometry. […]

Another test concerns B65 cells. Briefly: Caspase-3 activity assay, mitochondrial toxins. In kind it is cell-based. As to the method: MN9D cells and B65 cells were cultured in Dulbecco's Modified Eagle's Medium (DMEM; 11995 (containing pyridoxol HCl); Sigma, St. Louis, Mo.) supplemented with 10% fetal bovine serum (HyClone, Logan, Utah), 50 U/mL penicillin and streptomycin. For each assay the cells were treated with mitochondrial-specific environmental toxins, i.e., MPP+, rotenone, and/or TaClo, and with or without DNSP-11. After incubation with the toxins, the cells were plated on 24-well poly-D-lysine plates (50,000 cells/well) for TUNEL assay (as described below) or 100,000 cell/well for caspase-3 assay in DMEM medium with 1% (v/v) penicillin-streptomycin only (as described below).
B65 cells were plated on 24-well poly-D-lysine plates in DMEM and 50u/ml penicillin and streptomycin. Cells incubated in either 50 nM, 100 nM, or 250 nM rotenone or 10 μM, […] or 50 μM TaClo for 1 to 12 hours at 37° C. in 5% CO2, following pretreatment (1 to 30 minutes) with or without 10 nM or 100 nM DNSP-11. The cells were then lysed and protein level measured by BCA assay (BioRad). The protein level were normalized for every experiment. The Enz Chek Caspase-3 Kit (Invitrogen) was used to detect caspase-3 activity and fluorescence was read on fluorescence reader (excitation/emission 496/520 nm). Data are expressed as % of control and were repeated a minimum of three times.

Another test concerns Erk1/2. Nature of the test: ERK1/2 activation by western blot. In kind it is cell-based. To be noted: DNSP-11 0.1 uM or 1 uM or GDNF 50 ng/ml for 20 minutes. The procedure: MN9D and B65 cell were cultured in DMEM; 11995 (containing pyridoxol HCl; Sigma, St. Louis, Mo.) supplemented with 10% fetal bovine serum (HyClone, Logan, Utah), 50 U/mL penicillin and streptomycin with DNSP-11 (0.1 uM or 1 uM) or GDNF (50 ng/ml) for 20 minutes. The cells were then solubilized in Triton-X-100/glycerol lysis buffer and subjected to electrophoresis and western blotting as partially described previously (Jiang et al., Mol Biol Cell 14:859-70 (2003)). To detect phosphorylated Erk (#4377 Cell Signaling) and ERK (#4696 Cell Signaling) by immunoblotting, the cells were directly lysed in the sample loading buffer. Secondary IRDye 700X and IRDye800 conjugated, fluorescent antibodies (Rockland Inc.) were used to detect signal with Odyssey v3.0 scanning software. Several blots were analyzed to determine the linear range of the fluorescence signals, and quantifications were performed using densitometry analysis.
(In general: In western blotting, separated proteins are transferred to a membrane and probed.)

Ends that are not written are not given here.

In the case of “PPEAPAEDRSL-NH2 [DNSP-11, PPEAPAEDRSL-amide]”, the caspase-3 activity entry with MN9D dopaminergic cells is on record as “significant reduction”. In addition, the “GAPDH as binding partner in pull-down” value in test [1] (biotinylated DNSP-11, substantia nigra fractions, confirmed with pure GAPDH) was “identified”. Further, in test [1] (cytosolic and membrane fractions, preliminary studies), the “number of bound proteins identified” value is listed as “approximately 20”. In addition, in the test on B65 cells (no toxin), the “caspase-3 activity, DNSP-11 alone” value is recorded as “no significant effect”. In addition, the “caspase-3 activity, protection from toxins” value with B65 cells (rotenone or TaClo 1 to 12 hours, pretreatment with 10 nM or 100 nM DNSP-11) is reported as “significant protection”. Further, the “phosphorylation of Erk1/2 (ratio of phosphorylated to non-phosphorylated)” value in the test on Erk1/2 (B65 cells) and with Erk1/2 (MN9D cells) was “increases significantly” in each case.
